“Also recorded” adds a separate entry of the source. One block for each compound: values may come before it.
What was measured:
[1] = test system: IDH1-R132H mutant U87MG cells; assay: FRET imaging of D2HGlo cellular probes in IDH1 mutant glioma cells; type: cell-based, human
[2] = test system: IDH1 wildtype U87MG cells; assay: FRET imaging of D2HGlo cellular probes in IDH1 wildtype glioma cells; type: cell-based, human; conditions: for acute change of Cyto-D2HGlo FRET ratio: approximately 5.5 min
[3] = test system: IDH1-R132H mutant U87MG cells; assay: D-2-HG in cell culture supernatant measured with D2HGlo, mutant cells; type: cell-based, human; conditions: 48 h
mutant IDH1 = conditions: newly diagnosed and advanced cancer; cited from earlier work
D2HGlo = D2HGlo (Achromobacter denitrificans, UniProt A0A6N0JVZ6); assay: Ligand binding and selectivity of purified D2HGlo; conditions: for response of D2HGlo (FRET ratio) to metabolite: concentrations up to 100 µM
D2HGlo, sequence (A0A6N0JVZ6 1-238, other chains not shown): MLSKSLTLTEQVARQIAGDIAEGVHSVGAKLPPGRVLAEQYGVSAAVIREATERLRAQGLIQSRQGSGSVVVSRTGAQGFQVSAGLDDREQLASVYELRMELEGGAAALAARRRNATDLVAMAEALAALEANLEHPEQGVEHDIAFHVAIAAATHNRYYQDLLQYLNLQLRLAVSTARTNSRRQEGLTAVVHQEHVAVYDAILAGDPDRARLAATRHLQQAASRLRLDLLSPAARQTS

Structure (SMILES): O=CC[C@@H](O)[C@H](O)[C@H](O)CO [2-DG, 2-Deoxy-D-glucose]
acute change of Cyto-D2HGlo FRET ratio ([1]; 2-DG 10 mM, approximately 5.5 min): reduced the FRET ratio
acute change of Cyto-D2HGlo FRET ratio ([2]; 2-DG 10 mM): unaffected
concentration of D-2-HG in the supernatant ([3]; 2-DG 10 mM): reduced to levels comparable to untreated wildtype cells

Structure (SMILES): N#Cc1ccnc(N2C(=O)CC[C@H]2C(=O)N(c2cncc(F)c2)[C@H](C(=O)NC2CC(F)(F)C2)c2ccccc2Cl)c1 [AG-120]
average FRET ratio of Cyto-, Nuc- and Mito-D2HGlo (D-2-HG level) ([1]; AG-120 3 µM, 48 h): reduced the average FRET ratio in all three compartments in IDH1 mutant cells to levels comparable with IDH1 wildtype cells; also recorded: decrease to levels resembling those found in IDH1 wildtype cells
acute change of Cyto-D2HGlo FRET ratio ([1]; AG-120 10 μM, 15 min following drug addition): did not result in acute changes
D-2-HG levels (FRET ratio) ([2]; AG-120 3 µM, 48 h): no effect
D-2-HG concentration of supernatant ([3]; AG-120 3 µM): 2.88 ± 0.59 µM
2-HG levels in patients (mutant IDH1): reduction of 2-HG to levels resembling those seen in healthy populations

Structure (SMILES): CN(C)c1ccc(C2Nc3ccc4ccccc4c3C3=C2C(=O)CC(C)(C)C3)cc1Br (stereo not drawn) [Compound 968]
acute change of Cyto-D2HGlo FRET ratio ([1]; Compound 968 1 µM, approximately 5.5 min): did not elicit any changes
acute change of Cyto-D2HGlo FRET ratio ([2]; Compound 968 1 µM): did not elicit any changes
D-2-HG accumulation in cell culture supernatants ([3]; Compound 968 1 µM, wildtype and mutant cells (Fig. 5d)): nor did it effect D-2-HG accumulation

Structure (SMILES): O=C(O)CN(CCN(CC(=O)O)CC(=O)O)CC(=O)O [EDTA]
effect on D-2-HG induced FRET response of D2HGlo (D2HGlo; 1 mM EDTA in titration buffer): prevents D-2-HG induced changes to FRET ratio

response of D2HGlo (FRET ratio) to metabolite (D2HGlo): did not respond
Structure (SMILES): N[C@@H](CCC(=O)O)C(=O)O [Glutamate, L-glutamic acid]

response of D2HGlo (FRET ratio) to metabolite (D2HGlo): did not respond
Structure (SMILES): C[C@H](O)C(=O)[O-].[Na+] [Lactate, sodium L-lactate]

response of D2HGlo (FRET ratio) to metabolite (D2HGlo): did not respond
Structure (SMILES): CC(=O)C(=O)O [Pyruvate, Sodium pyruvate]

From paper PMC11909988 (BMC Cancer, 2025)
